Data as given in patent publication US7718686B2, “Imidazole variants as modulators of GABA receptor for the treatment of GI disorders” (AstraZeneca AB, priority 2004, dated 2010).

target: T1, GABAB receptor (Homo sapiens, UniProt O75899+Q9UBS5); experiment: [35S]-GTPγS binding assay with GABA in the presence or absence of PAM; format: biochemical; conditions: log EC50 for GABA plotted against log concentration of the positive allosteric modulator; read-out: EC50 (potency of the positive allosteric modulator)
T1 construct: expressed in transfected cells; host or cells: CHO-K1 (membranes)
T1 sequence (Q9UBS5 15-961 limits assumed): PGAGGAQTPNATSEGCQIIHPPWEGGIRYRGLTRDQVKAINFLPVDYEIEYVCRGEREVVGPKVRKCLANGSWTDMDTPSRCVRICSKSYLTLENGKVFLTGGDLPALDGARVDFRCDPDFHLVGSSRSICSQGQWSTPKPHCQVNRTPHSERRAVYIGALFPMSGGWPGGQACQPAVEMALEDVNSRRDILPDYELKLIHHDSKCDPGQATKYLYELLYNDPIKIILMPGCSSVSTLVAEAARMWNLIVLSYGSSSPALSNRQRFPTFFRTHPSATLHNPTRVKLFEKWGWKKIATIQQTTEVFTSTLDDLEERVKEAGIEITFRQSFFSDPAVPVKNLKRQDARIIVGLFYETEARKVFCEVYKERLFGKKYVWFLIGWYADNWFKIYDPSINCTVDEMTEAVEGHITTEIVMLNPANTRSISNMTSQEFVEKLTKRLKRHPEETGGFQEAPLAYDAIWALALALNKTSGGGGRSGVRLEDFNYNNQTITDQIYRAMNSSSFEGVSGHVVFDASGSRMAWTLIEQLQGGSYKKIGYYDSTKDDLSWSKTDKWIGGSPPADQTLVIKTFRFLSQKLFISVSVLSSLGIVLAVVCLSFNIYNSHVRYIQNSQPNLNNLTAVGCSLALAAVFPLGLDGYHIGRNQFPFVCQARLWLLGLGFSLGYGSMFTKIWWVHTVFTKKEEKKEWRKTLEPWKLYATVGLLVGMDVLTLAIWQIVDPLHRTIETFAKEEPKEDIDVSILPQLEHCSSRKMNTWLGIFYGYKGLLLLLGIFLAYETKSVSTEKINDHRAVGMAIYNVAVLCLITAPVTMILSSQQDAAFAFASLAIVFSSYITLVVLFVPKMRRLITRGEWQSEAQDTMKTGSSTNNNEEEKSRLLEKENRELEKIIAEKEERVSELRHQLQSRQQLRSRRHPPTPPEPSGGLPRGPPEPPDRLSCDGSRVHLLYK
T1 sequence (O75899 42-941): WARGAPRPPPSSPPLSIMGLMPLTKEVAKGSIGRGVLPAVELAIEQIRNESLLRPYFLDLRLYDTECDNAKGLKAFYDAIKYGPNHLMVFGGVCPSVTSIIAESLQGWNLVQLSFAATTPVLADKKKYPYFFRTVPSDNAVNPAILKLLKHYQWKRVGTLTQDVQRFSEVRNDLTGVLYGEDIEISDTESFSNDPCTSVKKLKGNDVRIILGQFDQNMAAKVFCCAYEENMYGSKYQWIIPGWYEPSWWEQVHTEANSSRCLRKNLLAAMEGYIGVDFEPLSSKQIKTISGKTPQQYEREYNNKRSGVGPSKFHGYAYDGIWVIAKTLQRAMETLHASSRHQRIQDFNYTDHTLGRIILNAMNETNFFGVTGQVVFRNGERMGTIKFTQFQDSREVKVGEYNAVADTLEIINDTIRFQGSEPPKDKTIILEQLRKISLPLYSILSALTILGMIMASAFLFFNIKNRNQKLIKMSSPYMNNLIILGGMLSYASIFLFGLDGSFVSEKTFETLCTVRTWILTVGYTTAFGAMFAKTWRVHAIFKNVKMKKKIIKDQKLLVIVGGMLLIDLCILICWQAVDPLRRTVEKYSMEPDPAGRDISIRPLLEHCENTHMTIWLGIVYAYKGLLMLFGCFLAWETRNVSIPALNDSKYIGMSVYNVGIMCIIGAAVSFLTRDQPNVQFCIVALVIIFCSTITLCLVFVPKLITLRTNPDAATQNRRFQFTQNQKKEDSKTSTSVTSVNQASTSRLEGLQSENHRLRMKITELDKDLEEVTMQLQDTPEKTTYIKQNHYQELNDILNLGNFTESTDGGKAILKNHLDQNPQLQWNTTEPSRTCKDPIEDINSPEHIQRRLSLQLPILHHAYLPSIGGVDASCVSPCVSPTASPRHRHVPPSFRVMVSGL
Method: [^35S]-GTPγS binding assays were performed at 30° C. for 45 min in membrane buffer (100 mM NaCl, 5 mM MgCl2, 1 mM EDTA, 50 mM HEPES, pH 7.4) containing 0.025 μg/μl of membrane protein (prepared from the cell lines described above) with 0.01% bovine serum albumin (fatty acid free), 10 μM GDP, 100 μM DTT and 0.53 nM [^35S]-GTPγS (Amersham-Pharmacia Biotech) in a final volume of 200 μl. Non-specific binding was determined in the presence of 20 μM GTPγS. The reaction was started by the addition of GABA at concentration between 1 mM and 0.1 mM in the presence or absence of the required concentration of PAM. The reaction was terminated by addition of ice-cold wash buffer (50 mM Tris-HCl, 5 mM MgCl2, 50 mM NaCl, pH 7.4) followed by rapid filtration under vacuum through Printed Filtermat A glass fiber filters (Wallac) (0.05% PEI treated) using a Micro 96 Harvester (Skatron Instruments). The filters were dried for 30 min at 50° C., then a paraffin scintillant pad was melted onto the filters and the bound radioactivity was determined using a 1450 Microbeta Trilux (Wallac) scintillation counter.
GABA dose-response curves in the presence and absence of test compounds were constructed using the 4-parameter logistic equation, y=ymax+((ymin−ymax)/1+(x/C)^D) where C=EC50 and D=slope factor.
The potency of PAM in GTPγS assays was determined by plotting the log EC50 for GABA against the log concentration of the positive allosteric modulator in the presence of which the measurement was performed.

Row | EC50 [nM] | SMILES
1 | 300 | CCCCC(C)(C)OC(=O)c1c(NC(=O)c2ccc(Cl)cc2)nc(SC)n1-c1ccccc1 [1,1-dimethylpentyl 4-[(4-chlorobenzoyl)amino]-2-(methylthio)-1-phenyl-1H-imidazole-5-carboxylate]
2 | 600 | CCOC(=O)c1c(NC(=O)C(CC)c2ccccc2)nc(SC)n1-c1ccccc1 (stereo not shown) [1H-imidazole-5-carboxylic acid, 2-(methylthio)-4-[(1-oxo-2-phenylbutyl)amino]-1-phenyl-, ethyl ester]
3 | 2300 | CCOC(=O)c1c(NC(=O)c2ccc(Cl)c(Cl)c2)nc(SC)n1Cc1ccccc1 [1H-imidazole-5-carboxylic acid, 4-[(3,4-dichlorobenzoyl)amino]-2-(methylthio)-1-(phenylmethyl)-, ethyl ester]
4 | 300 | COCC(C)(C)OC(=O)c1c(NC(=O)C2COc3ccccc3O2)nc(OC)n1-c1ccccc1 (stereo not shown) [2-methoxy-1,1-dimethylethyl 4-[(2,3-dihydro-1,4-benzodioxin-2-ylcarbonyl)amino]-2-methoxy-1-phenyl-1H-imidazole-5-carboxylate]
